Experimental data published in article PMC6775102, “Lifespan-increasing drug nordihydroguaiaretic acid inhibits p300 and activates autophagy” (NPJ Aging and Mechanisms of Disease, 2019).

Biological target: T1, p300 (Homo sapiens, UniProt Q09472)
T1 construct: gene EP300; p300 BHC (bromodomain, catalytic acetyltransferase domain, and C/H3 domain, amino acids 965–1810); also p300 HAT (amino acids 1284–1673)
T1 sequence (Q09472 965-1810): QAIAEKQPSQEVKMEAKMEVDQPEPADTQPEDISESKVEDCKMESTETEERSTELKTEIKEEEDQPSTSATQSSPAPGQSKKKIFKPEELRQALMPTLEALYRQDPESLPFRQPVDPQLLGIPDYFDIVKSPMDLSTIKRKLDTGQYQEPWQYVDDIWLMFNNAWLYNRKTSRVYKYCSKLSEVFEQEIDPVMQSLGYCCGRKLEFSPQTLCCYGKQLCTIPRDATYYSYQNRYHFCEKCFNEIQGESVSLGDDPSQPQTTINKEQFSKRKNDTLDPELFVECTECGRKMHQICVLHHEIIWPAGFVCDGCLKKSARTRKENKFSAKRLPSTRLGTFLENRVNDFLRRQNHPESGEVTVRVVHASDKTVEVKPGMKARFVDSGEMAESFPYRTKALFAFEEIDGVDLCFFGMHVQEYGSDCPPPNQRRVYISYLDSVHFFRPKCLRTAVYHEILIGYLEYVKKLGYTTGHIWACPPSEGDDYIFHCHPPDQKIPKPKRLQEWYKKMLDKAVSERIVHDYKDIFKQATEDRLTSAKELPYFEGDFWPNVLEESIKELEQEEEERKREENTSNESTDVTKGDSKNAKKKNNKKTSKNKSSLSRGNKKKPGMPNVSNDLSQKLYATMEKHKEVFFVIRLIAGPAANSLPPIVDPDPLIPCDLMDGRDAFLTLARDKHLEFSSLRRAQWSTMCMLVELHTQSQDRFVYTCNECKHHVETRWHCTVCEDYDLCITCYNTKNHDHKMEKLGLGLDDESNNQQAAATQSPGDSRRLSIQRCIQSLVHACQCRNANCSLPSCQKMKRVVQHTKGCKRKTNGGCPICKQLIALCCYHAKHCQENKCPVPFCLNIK
Experiment: fluorimetric acetyltransferase assay with recombinant p300 BHC and H3 peptide; second assay with p300 HAT; supported by CETSA of p300 HAT in HEK293T cells (+[…] °C)
Format: biochemical

- IC50: 10.3 µM
Structure (SMILES): CC(Cc1ccc(O)c(O)c1)C(C)Cc1ccc(O)c(O)c1 (stereo not shown) [nordihydroguaiaretic acid]
